Measured values as given in patent publication US9358276B2, “Methods of diagnosing and treating small intestinal bacterial overgrowth (SIBO) and SIBO-related conditions” (Cedars-Sinai Medical Center, priority 1999, dated 2016).

How the values were obtained:
[1] = system: rapid upper gut transit and diarrhea; test: Continued pre-meal oleate/oleic acid treatment: diarrhea, stool output, symptoms; format: in vivo, human
Text: Continuing oleic acid treatment at home was offered to Aresponders≅ (i.e., patients who experienced a greater than 100% increase in baseline transit time with 3.2 g oleic acid). Of the 36 responders out of the original 45 patients, 18 provided records of stool volume and frequency on- and off-treatment for comparison. The inconvenient and unappealing nature of stool collection and measurement were the primary reasons reported by responders who chose not to participate in stool collection. After completing a set of three preliminary breath hydrogen tests, each participating responder was asked to refrain from taking oleic acid for two days in order to measure off-treatment stool output for a 24-hour period. Patients were issued a stool pattern record form and a stool collection container with graduated volume markings to record the frequency and volume of bowel movements. After two days without oleic acid, each patient took 3.2 g of oleic acid mixed with 25 mL of Ensure emulsion three times a day, 30 minutes before breakfast, lunch and dinner. After taking oleic acid for two days, patients recorded stool output for another 24-hour period. With this oleic acid emulsion treatment, stool frequency decreased from 6.9±0.8 to 5.4±0.9 bowel movements per 24-hour period (p<0.05), and stool volume decreased from 1829.0±368.6 to 1322.5±256.9 per 24-hour period (p<0.05).
The patient was a person with a history of adolescent-onset, persistent diarrhea. […] They presented with complaints of excessive gas, postprandial bloating, diarrhea and urgency, and 3 to 7 liquid bowel movements per day. Their upper gut transit times were (min) 30 (0 g oleic acid), 117 (1.6 g oleic acid) and 101 (3.2 g oleic acid).

intestinal transit = test: Intestinal transit in fistulated dogs, Sqrt AUC of cumulative marker recovery; format: in vivo, dog
Protocol: In 4 dogs equipped with duodenal (10 cm from pylorus) and mid-gut (160 cm from pylorus) fistulas, as described hereinbelow (Example 14), intestinal transit was compared across an isolated 150 cm test segment (between fistulas) while 0, 15, 30 or 60 mM oleate was delivered into either the proximal or distal segment of the gut as a solution of mixed micelles in pH 7.0 phosphate buffer at 2 mL/min for 90 minutes. The segment of gut not receiving oleate was perfused with phosphate buffer, pH 7.0, at 2 mL/min. 60 minutes after the start of the perfusion, […] of ^99mTc-DTPA (diethylenetriaminepentaacetic acid) was delivered as a bolus into the test segment. Intestinal transit was then measured by counting the radioactivity of 1 ml samples collected every 5 minutes from the diverted output of the mid-gut fistula.
Intestinal transit was calculated by determining the area under the curve (AUC) of the cumulative percent recovery of the radioactive marker. The square root values of the AUC (Sqrt AUC), where 0=no recovery by 30 minutes and 47.4=theoretical, instantaneous complete recovery by time 0, were compared across region of fat exposure and oleate dose using 2-way repeated measures ANOVA (see Table 6 below).

SIBO [2] = test: Neomycin treatment of subjects with IBS and SIBO (LBHT, VAS); format: in vivo, human
Protocol: Subjects were tested after an overnight fast. At time zero, each subject swallowed 15 ml of Chronulac formula, delivering 10 g of lactulose; every 5-20 min thereafter, for 2-4 hours, a 50 cm^3 end-expiratory breath sample was taken with an airtight sampling bag. Each breath sample was then analyzed for hydrogen content with a gas chromatograph (Quintron Model DP, Quintron Instrument Co., Division of E.F. Brewer Co, Menomonee Falls, Wis. 53051), standardized using a QuinGas standard as instructed by the manufacturer. Hydrogen peaks were plotted before and after an antimicrobial treatment regimen for comparison. The normal range for the second hydrogen peak was 0 to 20 ppm.
The two hundred-two (202) human subjects were assessed for SIBO with LBHT. Of the 202 subjects in the database, 95 claimed to have been given a diagnosis of IBS. […] After these 22 subjects were excluded, 73 subjects remained.
Of the 124, 92 (74%) were positive for SIBO. […] Therefore, the incidence of SIBO among the 110 untreated subjects was 92 (84%), showing a strong association between a suspected diagnosis of IBS and the presence of SIBO. After neomycin treatment (500 mg twice daily for ten days), 23 of these 92 returned for follow-up testing. On a visual analog scores (VAS), subjects were asked to rate their degree of post-treatment improvement. These 23 subjects reported a 60±31% improvement, although 17 had only partial eradication of SIBO, based on their LBHT results. (FIG. 1).
There was a likely selection bias in the database due to the fact that subjects were referred for LBHT, because their physicians suspected they had SIBO. To correct for this bias, a pilot study was also conducted looking at the incidence of bacterial overgrowth in patients with IBS. […] Eight human subjects with a suspected diagnosis of IBS, based on the Rome criteria, were tested for SIBO, using LBHT as described in Example 2. […] Six of the 7 subjects testing positive for SIBO returned approximately 10 days after completion of a 10 day course of neomycin as described above. […] The six subjects reported an average improvement in their IBS symptoms of 65±28% (Range: 20-100%) on VAS scoring.

SIBO [3] = test: Case: multiple sclerosis with SIBO, neomycin; format: in vivo, human; details: one patient
Text: A suspected diagnosis of multiple sclerosis had been made by a neurologist was based on various neuropathies of the peripheral nervous system, including numbness, tingling, and weakness in the lower extremities, but this subject also had associated bloating, gas, distension and alteration in bowel habits. The subject also complained of a significant fatigue and nausea. The subject underwent LBHT, which detected SIBO. […] They no longer had numbness or tingling in the hands or feet and was functioning quite well.

SIBO [4] = test: Case: ADHD with SIBO, neomycin; format: in vivo, human; details: one patient
Text: A person was brought in by their parent with a suspected diagnosis of attention deficit/hyperactivity disorder (AD type), made by a pediatrician. Concurrently, they also had significant bloating, gas and some alteration in bowel habits. They had initially been referred for diagnosis by their teachers and school counselors, because they had been having difficulty performing in school for the previous two to three years, after having previously been a very good student. Prior to the detection of SIBO, the subject had been treated with multiple pharmacologic agents for depression, including amitryptiline, with no noticeable improvement in their symptoms.
Additionally, they started to get AA≅ averages in school again after being in the AC≅ range.

Molecule: CCCCCCCC/C=C\CCCCCCCC(=O)[O-].[Na+] [oleate, sodium oleate]
- diarrhea ([1]; all five patients, prolonged ingestion 15-30 minutes prior to meals): reduced diarrhea
- chronic abdominal pain, post prandial bloating and nausea ([1]; patient with Crohn's disease): complete resolution
- weight gained ([1]; patient with Crohn's disease): 22 lbs
- postprandial dumping syndrome ([1]; patient with vagotomy and antrectomy): resolution of postprandial dumping syndrome
- Sqrt AUC of cumulative percent marker recovery (mean ± SE) (intestinal transit; Distal 1/2 of gut, 15 mM): 25.6 ± 1.4
- Sqrt AUC of cumulative percent marker recovery (mean ± SE) (intestinal transit; Distal 1/2 of gut, 30 mM): 18.9 ± 1.5
- Sqrt AUC of cumulative percent marker recovery (mean ± SE) (intestinal transit; Distal 1/2 of gut, 60 mM): 7.0 ± 3.8
- Sqrt AUC of cumulative percent marker recovery (mean ± SE) (intestinal transit; Proximal 1/2 of gut, 15 mM, buffer control 41.4 ± 4.6): 41.6 ± 1.4
- Sqrt AUC of cumulative percent marker recovery (mean ± SE) (intestinal transit; Proximal 1/2 of gut, 30 mM): 40.6 ± 10.2
- Sqrt AUC of cumulative percent marker recovery (mean ± SE) (intestinal transit; Proximal 1/2 of gut, 60 mM): 34.4 ± 3.0

Molecule: neomycin
- degree of post-treatment improvement (VAS) (SIBO [2]; 23 IBS subjects with SIBO, 500 mg twice daily for ten days): 60±31%
- subjects with only partial eradication of SIBO (LBHT) (SIBO [2]; of the 23 returning subjects): 17
- average improvement in IBS symptoms on VAS scoring (SIBO [2]; pilot study, six subjects): 65±28%
- post-treatment breath hydrogen peaks (SIBO [2]; pilot study, six subjects): 0-20 ppm
- range of improvement in IBS symptoms on VAS scoring (SIBO [2]; pilot study, six subjects): 20-100%
- eradication of SIBO (LBHT) (SIBO [2]; pilot study, six subjects, 10 day course): completely eradicated
- time to relapse of symptoms after initial response (SIBO [3]): 6-8 weeks
- nausea, fatigue, bloating, gas distension and alteration in bowel habits (SIBO [3]; first treatment): complete resolution
- neuropathies (SIBO [3]; first treatment): dramatic improvement and resolution
- symptoms upon re-treatment (SIBO [3]; re-treatment 500 mg twice daily for 10 days): complete resolution of their symptoms
- eradication of bacterial overgrowth (SIBO [3]; 500 mg twice daily for 10 days): at least partially eradicated
- concentration (SIBO [4]): able to concentrate better
- time to relapse of attention problem and bacterial overgrowth (SIBO [4]): Approximately two
- response to repeat treatment (SIBO [4]; repeat 500 mg twice daily for 10 days): improved concentration and resolution of bowel symptoms
- bowel symptoms (SIBO [4]; 500 mg twice daily for 10 days): resolution of their bowel symptoms
